Results as given in ChEMBL document CHEMBL1150515, “Synthesis and structure-activity relationships of novel THF 1-methylcarbapenems II” (1997).

Key:
[1] = tested on: Escherichia coli; assay: Antimicrobial activity against Escherichia coli (ATCC 25922); type: functional
[2] = tested on: Acinetobacter calcoaceticus; assay: Antimicrobial activity against Acinetobacter calcoaceticus (GC 756); type: functional
[3] = tested on: Escherichia coli; assay: Antimicrobial activity against Escherichia coli (GC 1792); type: functional
[4] = Antimicrobial activity against Enterobacter cloacae (GC 2209); type: functional
[5] = tested on: Staphylococcus aureus; assay: The compound was evaluated for the antimicrobial activity against Staphylococcus aureus (ATCC 29213); type: functional
[6] = Antimicrobial activity against Enterococcus faecalis (GC 842); type: functional
[7] = Antimicrobial activity against Citrobacter freundii (GC 2211); type: functional
[8] = tested on: Escherichia coli; assay: Antimicrobial activity against Escherichia coli (GC 2205); type: functional
[9] = tested on: Staphylococcus aureus; assay: Antimicrobial activity against methicillin - resistant Staphylococcus aureus (GC 2220); type: functional
[10] = tested on: Pseudomonas aeruginosa; assay: Antimicrobial activity against Pseudomonas aeruginosa (ATCC 27853); type: functional
[11] = target: T1, Dipeptidase 1 (Sus scrofa) (UniProt P22412); assay: Relative hydrolysis to that of imipenem was determined by hog renal dehydropeptidase
T1 sequence (whole entry): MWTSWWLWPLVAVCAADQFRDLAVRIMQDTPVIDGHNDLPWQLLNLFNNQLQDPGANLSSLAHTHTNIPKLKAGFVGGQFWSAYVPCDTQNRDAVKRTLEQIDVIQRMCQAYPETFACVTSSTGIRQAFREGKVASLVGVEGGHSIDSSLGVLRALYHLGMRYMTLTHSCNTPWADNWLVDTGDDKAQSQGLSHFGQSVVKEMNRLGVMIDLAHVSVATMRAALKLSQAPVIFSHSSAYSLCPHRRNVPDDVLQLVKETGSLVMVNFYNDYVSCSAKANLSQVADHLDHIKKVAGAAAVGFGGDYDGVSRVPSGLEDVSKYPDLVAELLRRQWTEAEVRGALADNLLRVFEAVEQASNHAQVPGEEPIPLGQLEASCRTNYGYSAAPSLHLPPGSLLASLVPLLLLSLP

[12] = Antimicrobial activity against Morganella morganii (GC 2213); type: functional
[13] = Antimicrobial activity against Enterococcus faecium (GC 1182); type: functional
[14] = tested on: Pseudomonas aeruginosa; assay: Antimicrobial activity against Pseudomonas aeruginosa (GC 1544 OprD); type: functional
[15] = tested on: Stenotrophomonas maltophilia; assay: The compound was evaluated for the antimicrobial activity against Xanthomonas maltophilia (GC 562); type: functional
[16] = tested on: Enterococcus faecalis; assay: The compound was evaluated for the antimicrobial activity against Enterococcus faecalis (GC 842); type: functional
[17] = tested on: Staphylococcus aureus; assay: The compound was evaluated for the antimicrobial activity against methicillin - resistant Staphylococcus aureus (GC 2220); type: functional
[18] = Antimicrobial activity against Xanthomonas maltophilia (GC 562); type: functional; conditions: Stenotrophomonas maltophilia
[19] = tested on: Enterococcus faecium; assay: The compound was evaluated for the antimicrobial activity against Enterococcus faecium (GC 1182); type: functional
[20] = tested on: Staphylococcus aureus; assay: Antimicrobial activity against Staphylococcus aureus (ATCC 29213); type: functional
[21] = target: T1, Dipeptidase 1 (Sus scrofa); assay: Relative hydrolysis of compound to that of imipenem was determined by hog renal dehydropeptidase; type: functional

C[C@@H](O)[C@H]1C(=O)N2C(C(=O)[O-])=C(SC3COC(CN)C3)[C@H](C)[C@H]12.[Na+] (stereo not given in full)
MIC [1]: ≤ 0.06 µg/mL | MIC [2]: 1 µg/mL | MIC [3]: 0.06 µg/mL | MIC [4]: ≤ 0.06 µg/mL | MIC [5]: ≤ 0.06 µg/mL | MIC [6]: 2 µg/mL | MIC [7]: 0.06 µg/mL | MIC [8]: ≤ 0.06 µg/mL | MIC [9]: 8 µg/mL | MIC [10]: 4 µg/mL | Relative hydrolysis [11]: 19 | MIC [12]: 0.25 µg/mL | MIC [13]: > 128 µg/mL | MIC [14]: 8 µg/mL | MIC [15]: > 128 µg/mL

CCN1CCN(C(=O)NC[C@H]2OCC[C@H]2SC2=C(C(=O)[O-])N3C(=O)[C@H]([C@@H](C)O)[C@H]3[C@H]2C)C(=O)C1=O.[Na+]
MIC [1]: ≤ 0.06 µg/mL | MIC [2]: 2 µg/mL | MIC [3]: ≤ 0.06 µg/mL | MIC [4]: ≤ 0.06 µg/mL | MIC [16]: 4 µg/mL | MIC [17]: 8 µg/mL | MIC [18]: > 128 µg/mL | MIC [7]: 0.12 µg/mL | MIC [8]: ≤ 0.06 µg/mL | MIC [10]: 16 µg/mL | MIC [19]: > 128 µg/mL | Relative hydrolysis [11]: 9 | MIC [12]: 0.5 µg/mL | MIC [14]: 32 µg/mL | MIC [20]: ≤ 0.06 µg/mL

C[C@H](N)C(=O)NCC1CC(SC2=C(C(=O)[O-])N3C(=O)[C@H]([C@@H](C)O)[C@H]3[C@H]2C)CO1.[Na+] (stereo not given in full)
MIC [1]: ≤ 0.06 µg/mL | MIC [2]: 8 µg/mL | MIC [3]: ≤ 0.06 µg/mL | MIC [4]: 0.25 µg/mL | MIC [18]: > 128 µg/mL | MIC [6]: 4 µg/mL | MIC [7]: 1 µg/mL | MIC [8]: ≤ 0.06 µg/mL | MIC [9]: 8 µg/mL | MIC [10]: 32 µg/mL | Relative hydrolysis [21]: 10 | MIC [12]: 1 µg/mL | MIC [13]: > 128 µg/mL | MIC [14]: 64 µg/mL | MIC [20]: 0.12 µg/mL

CNC[C@H]1OCC[C@H]1SC1=C(C(=O)[O-])N2C(=O)[C@H]([C@@H](C)O)[C@H]2[C@H]1C.[Na+]
MIC [1]: ≤ 0.06 µg/mL | MIC [2]: 4 µg/mL | MIC [3]: ≤ 0.06 µg/mL | MIC [4]: ≤ 0.06 µg/mL | MIC [18]: > 128 µg/mL | MIC [6]: 0.5 µg/mL | MIC [7]: 0.12 µg/mL | MIC [8]: ≤ 0.06 µg/mL | MIC [9]: 1 µg/mL | MIC [10]: 8 µg/mL | Relative hydrolysis [11]: 10 | MIC [12]: 0.5 µg/mL | MIC [13]: > 64 µg/mL | MIC [14]: 32 µg/mL | MIC [20]: ≤ 0.06 µg/mL
